Measured values as given in patent US11369590B2, “PSMA binding ligand-linker conjugates and methods for using” (Purdue Research Foundation, priority 2007, dated 2022).
Where two headings read alike, the source gives them in different places. *1 amine or outer side, *2 acyl side, *3 side chain or, on linkers, in order; H or OH if unused. Where a SMILES comes first, the peptide text is derived from it. Side-chain parts run from the residue outwards. [ ]: non-standard residue; d: D form. γGlu = O=C(O)[C@H](CCC(=O)[*:2])N[*:1]; Dap = NC[C@H](N)C(=O)O; Aoc = NCCCCCCCC(=O)O; CO = O=C([*:1])[*:2]

What was measured:
[1] = tested on: LNCaP tumors; assay: Efficacy study compared to control group and competition group; format: in vivo, mouse
Experimental: Efficacy study compared to control group and competition group. Animals were treated with (a) the conjugate SK71 administered in 5 doses on alternate days (M, W, F, M, W) at […], and compared to (b) vehicle treated animals (FIG. 10B), and to (c) animals treated with the conjugate in conjunction with PMPA. […] The competition experiments (See FIG. 10C) indicate that the successful treatment of the implanted tumor is related to selective or specific targeting of PSMA mediated delivery.

[2] = Multiple dose toxicity in live mice; format: in vivo, mouse
Experimental: Multiple dose toxicity in live mice. SK71 was administered in 5 doses on alternate days (M, W, F, M, W). […] (See FIG. 9B)

[3] = tested on: LNCaP cells; assay: [3H]-Thymidine incorporation assay, toxicity to LNCaP cells in culture; format: cell-based, human; conditions: LNCaP cells pulsed 2 h, additional 66 h in fresh medium
Experimental: Evaluation of a PSMA-Targeted Therapeutic Agent in Vitro. Analysis of SK71 (FIG. 12A), SK77 (FIG. 12B), SK37 (FIG. 12C), and SK45 (FIG. 12D), toxicity to LNCaP cells in culture. LNCaP cells were pulsed for 2 h with increasing concentrations of SK71 or SK77 in the presence (▴) or absence (▪) of 100-fold molar excess PMPA. After 2× washes, cells were incubated an additional 66 h in fresh medium at 37° C. Cell viability was then analyzed using the [3H]-thymidine incorporation assay, as described herein. Data were obtained in a single experiment and error bars represent s.d. (n=3 wells per concentration).

[4] = Single dose toxicity in live mice; conditions: mouse, in vivo, single dosing
Text: Single dose toxicity in live mice. Administration of SK71 was in a single dose as indicated. […] (See FIG. 9A)

[5] = biological target: PSMA (Homo sapiens, UniProt Q04609); conditions: PSMA ligand of formula drawing 51, R^1 as drawn; cited from earlier work
[6] = tested on: LNCaP cells; conditions: 1 hour
Experimental: Quantification of PSMA Molecules on LNCaP Cells. […] Cells were rinsed three times with 1.0 mL of RPMI. Cells were lysed with tris-buffer, transferred to individual gamma scintigraphy vials, and radioactivity was counted. The plot of cell bound radioactivity verses concentration of radiolabeled compound was used to calculate number of PSMA/LNCaP cell. The radioactivity of a 30 nM sample of SK28-99 mTc (20 uL) was counted. At 4° C. (to prevent endocytosis of PSMA), the number of moles in the 30 nM sample=30 nM×20 uL=(30×10-9 mol/L)×(20×10-6 L)=6×10-13 mol.

[7] = tested on: LNCaP tumors; assay: In vivo imaging of LNCaP tumors in mouse using DUPA-99mTc
Experimental: (§1) In Vivo Imaging of Tumors in Mouse Using dupa-99 mTc. To further establish the specificity of our DUPA conjugates for prostate cancer cells, DUPA-99 mTc was injected intraperitoneally (i.p.) into athymic nude mice bearing LNCaP tumors on their shoulders. After 4 h to allow for clearance of unbound conjugate, the distribution of the retained DUPA-99 mTc was imaged by gamma scintigraphy. […] In vivo specificity of the PSMA-targeted imaging agent was further tested by prior administration of excess PMPA to block all PSMA sites before DUPA-99 mTc administration. […] To further document this specificity, the radiotracer was also administered to two PSMA negative mouse xenograft models [A549 (a human lung cancer cell line) and KB (a human nasopharyngeal cancer cell line)], and again whole body images were taken. […] These studies thus confirm that very little DUPA-99 mTc binding occurs to sites unrelated to PSMA in vivo.
(§2) Overlay of whole-body radioimages on white light images of mice bearing LNCaP tumors that were treated with DUPA-99 mTc in the absence 7D(a, c) or presence 7D(b, d) of 100-fold molar excess PMPA. Overlay of radioimages on white light images were also obtained of mice bearing an A549 tumor 7D(e) or a KB tumor 7D(f) that were similarly treated with DUPA-99 mTc. Except in images 7D(a) and 7D(b), kidneys were shielded with lead pads. […]

[8] = tested on: A549 tumors; conditions: mouse, in vivo
Experimental: as §1, §2

[9] = tested on: KB tumors; conditions: mouse, in vivo
Experimental: as §1, §2

[10] = tested on: LNCaP tumors; assay: In vivo imaging of tumors in mouse using PSMA-99mTc compounds; conditions: mice with LNCaP tumors, 4 hours after intraperitoneal injection
Experimental: In Vivo Imaging of Tumors in Mouse Using PSMA-99 mTc. When tumors reached a volume of between 500-600 mm3, 99 mTc-labeled compounds (e.g. SK28-99 mTc, SK60-99 mTc, etc) prepared as described, were administered through intraperitoneal injection […]. Four hours later, animals were euthanized and blood was taken by cardio punch and transferred to individual gamma scintigraphy vials per each animal. The imaging experiments were carried out using either a Kodak or gamma scintigraphic camera imager (FIGS. 6A, 6B, 6C, 7A, 7B and 7C). [Note: PMPA was injected 30 minutes before injecting SK28 -99 mTc.
FIGS. 6A, 6B, and 6C show images of mice with human LNCaP tumors using SK28-99 mTc (radiolabeled 14 Atom spacer).

PSMA, sequence (Q04609 whole entry, species assumed): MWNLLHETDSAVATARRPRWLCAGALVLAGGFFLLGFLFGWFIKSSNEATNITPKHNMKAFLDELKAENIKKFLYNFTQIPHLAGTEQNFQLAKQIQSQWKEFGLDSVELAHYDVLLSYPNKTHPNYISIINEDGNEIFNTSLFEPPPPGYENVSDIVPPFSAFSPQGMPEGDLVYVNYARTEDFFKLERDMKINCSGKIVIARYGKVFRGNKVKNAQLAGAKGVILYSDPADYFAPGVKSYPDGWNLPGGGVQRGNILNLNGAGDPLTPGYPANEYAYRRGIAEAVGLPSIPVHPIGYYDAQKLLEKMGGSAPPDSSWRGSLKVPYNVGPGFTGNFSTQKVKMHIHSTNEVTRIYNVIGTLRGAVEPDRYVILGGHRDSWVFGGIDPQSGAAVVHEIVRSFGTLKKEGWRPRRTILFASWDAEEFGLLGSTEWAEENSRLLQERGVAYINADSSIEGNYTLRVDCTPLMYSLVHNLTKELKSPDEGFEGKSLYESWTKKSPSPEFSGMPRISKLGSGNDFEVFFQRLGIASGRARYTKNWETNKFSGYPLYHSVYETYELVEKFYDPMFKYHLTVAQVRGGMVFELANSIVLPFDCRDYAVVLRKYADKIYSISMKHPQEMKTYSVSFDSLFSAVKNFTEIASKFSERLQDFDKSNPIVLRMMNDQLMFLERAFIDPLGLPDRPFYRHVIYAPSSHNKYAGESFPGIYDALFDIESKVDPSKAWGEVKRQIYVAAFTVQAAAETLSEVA

CCCC(=O)OCN(C(=O)[C@@H](NC(=O)[C@H]1CCCCN1C)C(C)CC)[C@H](C[C@@H](OC(C)=O)c1nc(C(=O)N[C@@H](Cc2ccc(O)cc2)C[C@H](C)C(=O)NNC(=O)OCCSSC[C@H](NC(=O)[C@H](Cc2ccccc2)NC(=O)[C@H](CC(=O)O)NC(=O)CC[C@H](NC(=O)CC[C@H](NC(=O)N[C@@H](CCC(=O)O)C(=O)O)C(=O)O)C(=O)O)C(=O)O)cs1)C(C)C (some centres unmarked) [SK71]
tumor size during treatment ([1]; 1 μmol/kg, 5 doses on alternate days, starting tumor size approximately 250 mm3): successive decrease in tumor size | tumor volume after dosing ([1]; 1 μmol/kg, at the cessation of dosing): tumor volumes rebounded | tumor response at higher dose ([1]; at least 2 μmol/kg, during the testing period): complete disappearance of the tumor | visible tumors ([2]; LNCaP tumors, 2 and 4 μmol/kg groups, after 18 days of treatment): no mice in the two treated groups had visible tumors | MTD ([2]; mouse, in vivo, multiple dosing, 5 doses on alternate days, mice): 2 µmol/kg | IC50 [3]: ~2 nM | MTD [4]: ~4.5 µmol/kg

O=C(O)CCC(NC(=O)NC(CCC(=O)O)c1nnn[nH]1)C(=O)O (centres unmarked)
Ki [5]: 335 nM

O=C(O)CCC(NC(=O)NC(CCC(=O)O)C(=O)O)C(=O)O (centres unmarked)
Ki [5]: 8 nM

N[C@@H](CNC(=O)[C@H](Cc1ccccc1)NC(=O)[C@H](Cc1ccccc1)NC(=O)CCCCCCCNC(=O)CC[C@H](NC(=O)N[C@@H](CCC(=O)O)C(=O)O)C(=O)O)C(=O)N[C@@H](CC(=O)O)C(=O)N[C@@H](CS)C(=O)O [SK28-^99mTc, metal not drawn] (H-[Dap]([Phe-Phe-Aoc-γGlu-CO-Glu])-Asp-Cys-OH)
cell bound radioactivity at the saturation point ([6]; 4° C.): 12 000 cpm | cell bound radioactivity at the saturation point ([6]; 37° C.): 33,000 cpm | tumor uptake after PMPA block ([7]; LNCaP tumors, prior administration of 100-fold molar excess PMPA): no DUPA-99 mTc uptake | distribution of retained radiotracer (gamma scintigraphy) ([7]; nude mice bearing LNCaP tumors, 4 h after i.p. injection, without PMPA): accumulated mainly in the PSMA positive LNCaP tumor | radioactivity in tumor [8]: no radioactivity was observed | radioactivity in tumor [9]: no radioactivity was observed | distribution of radioactivity (imaging) [10]: distribution was limited to kidneys

CC[C@@]1(OC(=O)OCCSSC[C@H](NC(=O)[C@H](CC(=O)O)NC(=O)[C@@H](N)CNC(=O)[C@H](Cc2ccccc2)NC(=O)[C@H](Cc2ccccc2)NC(=O)CCCCCCCNC(=O)CC[C@H](NC(=O)N[C@@H](CCC(=O)O)C(=O)O)C(=O)O)C(=O)O)C(=O)OCc2c1cc1n(c2=O)Cc2cc3ccccc3nc2-1 [SK45]
IC50 [3]: ~29 nM
